Legend:
[1] = target: T1, B-Raf kinase (SEQ ID NO: 1) (Homo sapiens, UniProt P15056); experiment: Biochemical assay for B-Raf (coupled pyruvate kinase/lactate dehydrogenase); conditions: 1 mM ATP; read-out: BRAF (inhibition of biochemical activity, IC50)
T1 construct: GST (N); purchased Sigma

[2] = target: T2, C-Raf kinase (SEQ ID NO: 2) (Homo sapiens, UniProt P04049, Y340D/Y341D); experiment: Biochemical assay for C-Raf (coupled pyruvate kinase/lactate dehydrogenase); conditions: 1 mM ATP; read-out: CRAF (inhibition of biochemical activity, IC50)
T2 construct: C-Raf residues 306-end; Y340D, Y341D with N-; GST (N); purchased Sigma
T2 sequence (P04049 307-648 Y340D/Y341D): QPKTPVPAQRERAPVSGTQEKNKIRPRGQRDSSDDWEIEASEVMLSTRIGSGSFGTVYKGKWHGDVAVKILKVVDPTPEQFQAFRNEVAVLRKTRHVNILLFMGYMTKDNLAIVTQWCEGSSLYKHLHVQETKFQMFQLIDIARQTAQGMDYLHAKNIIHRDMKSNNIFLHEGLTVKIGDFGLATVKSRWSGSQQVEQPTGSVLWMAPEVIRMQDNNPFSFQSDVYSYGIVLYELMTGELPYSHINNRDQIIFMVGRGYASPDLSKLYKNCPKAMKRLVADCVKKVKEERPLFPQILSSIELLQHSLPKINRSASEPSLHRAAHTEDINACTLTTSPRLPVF

MiaPaca-2 cells = experiment: MiaPaca-2 cell proliferation assay; assay type: cell-based; conditions: Homo sapiens, MIA PaCa-2; 67-72 h incubation, resazurin; read-out: MiaPaca-2 (inhibition of cell proliferation, IC50)
Procedure: Miapaca-2 cells (catalog #CRL-1420) are obtained from the American Type Culture Collect (ATTC, Manassas, VA). Briefly, cells were grown in DMEM supplemented with 10% characterized fetal bovine serum (Invitrogen, Carlsbad, CA), 2.5% New Zealand sourced horse serum and 1% Penicillin/Streptomycin/L-Glutamine at 37° C., 5% CO2, and 95% humidity. Cells are expanded until reaching 70-95% confluency at which point they are sub-cultured or harvested for assay use. A serial dilution of test compound is dispensed into a 384-well black clear bottom plate in triplicate. Seven hundred fifty cells are added per well in 50 μL complete growth medium in the 384-well plate. Plates are incubated for 67-72 h at 37° C., 5% CO2, and 95% humidity. At the end of the incubation, 10 μL of a 440 μM solution of resazurin (Sigma, St. Louis, MO) in PBS is added to each well of the plate and plates are incubated for an additional 5-6 h at 37° C., 5% CO2, and 95% humidity. Plates are read on a Synergy2 or equivalent reader (Biotek, Winooski VT) using an excitation of 540 nm and an emission of 600 nm. Data is analyzed using Prism software (GraphPad, San Diego, CA) to calculate IC50 values.

HCT-116 cells = experiment: HCT-116 cell proliferation assay; assay type: cell-based; conditions: 67 to 72 h incubation, resazurin; for IC50: Homo sapiens, HCT-116, read-out: HCT-116 (inhibition of cell proliferation, IC50)
Procedure: HCT-116 cells (catalog #CCL-247) are obtained from the American Type Culture Collect (ATCC, Manassas, VA). Briefly, cells are grown in McCoy's 5A supplemented with 10% characterized fetal bovine serum (Invitrogen, Carlsbad, CA) and 1% Penicillin/Streptomycin/L-Glutamine at 37° C., 5% CO2, and 95% humidity. Cells are expanded until reaching 70-95% confluency at which point they are sub-cultured or harvested for assay use. A serial dilution of test compound is dispensed into a 384-well black clear bottom plate in triplicate. 375 cells are added per well in 50 μL complete growth medium in the 384-well plate. Plates are incubated for 67 to 72 h at 37° C., 5% CO2, and 95% humidity. At the end of the incubation, 40 μL of a […] solution of resazurin (Sigma, St. Louis, MO) in PBS is added to each well of the plate and plates are incubated for an additional 4 to 5 h at 37° C., 5% CO2, and 95% humidity. Plates are read on a Synergy2 or equivalent reader (Biotek, Winooski, VT) using an excitation of 540 nm and an emission of 600 nm. Data is analyzed using Prism software (Graphpad, San Diego, CA) to calculate IC50 values.

HPAF-II cells = experiment: HPAF-II cell proliferation assay; assay type: cell-based; conditions: Homo sapiens, HPAF-II; 115 to 120 h incubation, resazurin; read-out: HPAF-II (inhibition of cell proliferation, IC50)
Procedure: (§1) HPAF-II cells (catalog #CRL-1997) are obtained from the American Type Culture Collect (ATCC, Manassas, VA). Briefly, cells are grown in Minimum Essential Media supplemented with 10% characterized fetal bovine serum (Invitrogen, Carlsbad, CA) and 1% Penicillin/Streptomycin/L-Glutamine at 37° C., 5% CO2, and 95% humidity. Cells are expanded until reaching 70-95% confluency at which point they are sub-cultured or harvested for assay use. A serial dilution of test compound is dispensed into a 384-well black clear bottom plate in triplicate. 750 cells are added per well in 50 μL complete growth medium in the 384-well plate. Plates are incubated for 115 to 120 h at 37° C., 5% CO2, and 95% humidity. At the end of the incubation, 40 μL of a […] solution of resazurin (Sigma, St. Louis, MO) in PBS is added to each well of the plate and plates are incubated for an additional 18 to 24 h at 37° C., 5% CO2, and 95% humidity. Plates are read on a Synergy2 or equivalent reader (Biotek, Winooski, VT) using an excitation of 540 nm and an emission of 600 nm. Data is analyzed using Prism software (Graphpad, San Diego, CA) to calculate IC50 values.

Pa16c cells = experiment: Pa16c cell proliferation assay; assay type: cell-based; conditions: 67 to 72 h incubation, resazurin; read-out: Pa16c (inhibition of cell proliferation, IC50)
Procedure: as §1, with “Pa16c” for “HPAF-II”, “cells” for “cells (catalog #CRL-1997)”, “Dr. Channing Der, University of North Carolina at Chapel Hill.” for “the American Type Culture Collect (ATCC, Manassas, VA).”, “Dulbecco's Modified Eagle Medium” for “Minimum Essential Media”, “67” for “115”, “72” for “120”

T1 sequence (P15056 416-766): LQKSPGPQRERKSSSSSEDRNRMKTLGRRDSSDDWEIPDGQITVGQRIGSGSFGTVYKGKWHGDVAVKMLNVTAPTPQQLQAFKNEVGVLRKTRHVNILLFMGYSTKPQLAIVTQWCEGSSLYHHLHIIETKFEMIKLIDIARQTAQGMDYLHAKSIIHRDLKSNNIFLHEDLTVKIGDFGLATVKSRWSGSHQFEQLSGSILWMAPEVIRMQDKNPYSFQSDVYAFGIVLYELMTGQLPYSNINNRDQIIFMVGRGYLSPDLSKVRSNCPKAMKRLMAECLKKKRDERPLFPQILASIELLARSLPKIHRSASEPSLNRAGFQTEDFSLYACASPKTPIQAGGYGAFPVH

SMILES | IC50 [1] | IC50 [2] | IC50 (MiaPaca-2 cells) | IC50 (HCT-116 cells) | IC50 (HPAF-II cells) | IC50 (Pa16c cells) | HCT-116 (inhibition of cell proliferation, IC50) (HCT-116 cells)
Cc1ccc(NC(=O)c2cncc(C(C)C)c2)cc1-c1cc(N[C@H](C)CO)nc(N2CCOCC2)c1 [Example 13] | < 100 nM | < 100 nM | 500 to 1000 nM | 100 to 500 nM | 500 to 1000 nM | 1000 to 10000 nM | 
Cc1ccc(NC(=O)c2cc(C(F)(F)F)cnn2)cc1-c1ccnc(N2CCOCC2)c1 [Example 1, N-(4-methyl-3-(2-morpholinopyridin-4-yl)phenyl)-5-(trifluoromethyl)pyridazine-3-carboxamide] | 100 to 500 nM | 100 to 500 nM | < 100 nM | 100 to 500 nM | 100 to 500 nM | 100 to 500 nM | 
Cc1ccc(NC(=O)c2cc(Cl)cnn2)cc1-c1ccnc(N2CCOCC2)n1 [Example 71] | 1000 to 10000 nM | 1000 to 10000 nM | 100 to 500 nM | 1000 to 10000 nM | 1000 to 10000 nM | 1000 to 10000 nM | 
Cc1ccc(NC(=O)c2cc(C3CC3)cnn2)cc1-c1ccnc(N2C[C@@H](C)O[C@@H](C)C2)c1 [Example 85] | 1000 to 10000 nM | 1000 to 10000 nM | 1000 to 10000 nM | 1000 to 10000 nM | 1000 to 10000 nM | 1000 to 10000 nM | 
CNc1cc(N2C[C@H]3C[C@@H]2CO3)nc(-c2cc(NC(=O)c3cc(C(F)(F)F)cnn3)ccc2C)n1 [Example 91] | 1000 to 10000 nM | 1000 to 10000 nM | 500 to 1000 nM | 1000 to 10000 nM | 1000 to 10000 nM | 1000 to 10000 nM | 
Cc1ccc(NC(=O)c2cc(C3CC3)cnn2)cc1-c1ccnc(N2CCOCC2)n1 [Example 31] | 1000 to 10000 nM | 500 to 1000 nM | 100 to 500 nM | 100 to 500 nM | 100 to 500 nM | < 100 nM | 
C=C(C)c1cncc(C(=O)Nc2ccc(C)c(-c3cc(N[C@H](C)CO)nc(N4CCOCC4)c3)c2)n1 [Example 53] | < 100 nM | < 100 nM | 1000 to 10000 nM | 1000 to 10000 nM | 1000 to 10000 nM | 1000 to 10000 nM | 
Cc1ccc(NC(=O)c2cnc(N)nc2)cc1-c1cc(N[C@H](C)CO)nc(N2CCOCC2)c1 [Example 68] | 1000 to 10000 nM | 500 to 1000 nM | 1000 to 10000 nM | 1000 to 10000 nM | 1000 to 10000 nM | 1000 to 10000 nM | 
Cc1ccc(NC(=O)c2cc(C3CC3)cnn2)cc1-c1ccnc(N2CCOCC2)c1 [Example 2, 5-cyclopropyl-N-(4-methyl-3-(2-morpholinopyridin-4-yl)phenyl)pyridazine-3-carboxamide] | 100 to 500 nM | < 100 nM | 100 to 500 nM | 100 to 500 nM | 100 to 500 nM | 1000 to 10000 nM | 
Cc1ccc(NC(=O)c2cc(C(F)(F)F)cnn2)cc1-c1cc(N2CCOCC2)nc(N[C@H](C)CO)n1 [Example 33] | 100 to 500 nM | < 100 nM | 100 to 500 nM | 100 to 500 nM | 100 to 500 nM | 100 to 500 nM | 
Cc1ccc(NC(=O)c2cc(C(F)(F)F)cnn2)cc1-c1cnnc(N2CCOCC2)c1 [Example 21, N-(4-methyl-3-(6-morpholinopyridazin-4-yl)phenyl)-5-(trifluoromethyl)pyridazine-3-carboxamide] | 500 to 1000 nM | 500 to 1000 nM | 500 to 1000 nM | 500 to 1000 nM | 500 to 1000 nM | 1000 to 10000 nM | 
Cc1ccc(NC(=O)c2ccc(C(F)(F)F)nn2)cc1-c1cc(N[C@H](C)CO)nc(N2CCOCC2)c1 [Example 5] | 1000 to 10000 nM | 500 to 1000 nM | 100 to 500 nM | 1000 to 10000 nM | 1000 to 10000 nM | 1000 to 10000 nM | 
Cc1ccc(NC(=O)c2cc(C(F)(F)F)cnn2)cc1-c1cc(N[C@H](C)CO)nc(N2CC3CC(C2)O3)c1 [Example 7] | 100 to 500 nM | 100 to 500 nM | < 100 nM |  | < 100 nM | 500 to 1000 nM | ++ ++
Cc1ccc(NC(=O)c2cc(C3CC3)cnn2)cc1-c1ccnc(N2C[C@@H]3C[C@H]2CO3)c1 [Example 89] | 100 to 500 nM | 1000 to 10000 nM | < 100 nM | < 100 nM | < 100 nM | < 100 nM | 
Cc1ccc(NC(=O)c2cc(C(F)(F)F)cnn2)cc1-c1ccnc(N2C[C@H]3C[C@@H]2CO3)c1 [Example 86] | 1000 to 10000 nM | 1000 to 10000 nM | < 100 nM | < 100 nM | < 100 nM | < 100 nM | 

Now from value to compound, other results behind:

IC50 [1] | IC50 [2] | IC50 (MiaPaca-2 cells) | IC50 (HCT-116 cells) | SMILES | IC50 (HPAF-II cells) | IC50 (Pa16c cells) | HCT-116 (inhibition of cell proliferation, IC50) (HCT-116 cells)
< 100 nM | < 100 nM | 100 to 500 nM | < 100 nM | Cc1ccc(NC(=O)c2cc(C(C)C)cnn2)cc1-c1cc(OCCO)nc(N2CCOCC2)c1 [Example 39] | 100 to 500 nM | 100 to 500 nM | 
1000 to 10000 nM | 500 to 1000 nM | 100 to 500 nM | 100 to 500 nM | Cc1ccc(NC(=O)c2cnc(C(F)(F)F)nc2)cc1-c1cc(OCCO)nc(N2CCOCC2)c1 [Example 11] | 100 to 500 nM | 500 to 1000 nM | 
100 to 500 nM | 100 to 500 nM | 1000 to 10000 nM | 1000 to 10000 nM | Cc1ccc(NC(=O)c2cc(C(C)C)cnn2)cc1-c1cc(N2CCOCC2)ncn1 [Example 72] | 1000 to 10000 nM | 1000 to 10000 nM | 
< 100 nM | < 100 nM | 100 to 500 nM | 100 to 500 nM | Cc1cc(-c2cc(NC(=O)c3cc(C4CC4)cnn3)ccc2C)cc(N2CCOCC2)n1 [Example 20] | 100 to 500 nM | 1000 to 10000 nM | 
< 100 nM | < 100 nM | 500 to 1000 nM | 100 to 500 nM | Cc1ccc(NC(=O)c2cncc(C(F)(F)F)c2)cc1-c1cc(OCCO)nc(N2CCOCC2)c1 [Example 47] | 500 to 1000 nM | 1000 to 10000 nM | 
500 to 1000 nM | 100 to 500 nM | 1000 to 10000 nM | 100 to 500 nM | Cc1ccc(NC(=O)c2cc(Cl)cnn2)cc1-c1cc(OCCO)nc(N2CCOCC2)c1 [Example 32] | 1000 to 10000 nM | 500 to 1000 nM | 
